Measurements reported in EP2210885A1, “Substituted heteroarylpiperidine derivatives as melanocortin-4 receptor modulators” (Santhera Pharmaceuticals (Schweiz) AG, priority 2009, dated 2010).

Assays:
hMC-4R [1] = biological target: T1, hMC-4R (Homo sapiens, UniProt P32245); assay: hMC-4R membrane binding assay (fluorescence polarization, competition with fluorescence labeled NDP-alpha-MSH); conditions: HEK293 cell membrane preparations expressing human melanocortin receptors; values grouped in classes
T1 construct: expressed in transfected cells; host or cells: HEK293 cell membrane preparations
T1 sequence (P32245 whole entry): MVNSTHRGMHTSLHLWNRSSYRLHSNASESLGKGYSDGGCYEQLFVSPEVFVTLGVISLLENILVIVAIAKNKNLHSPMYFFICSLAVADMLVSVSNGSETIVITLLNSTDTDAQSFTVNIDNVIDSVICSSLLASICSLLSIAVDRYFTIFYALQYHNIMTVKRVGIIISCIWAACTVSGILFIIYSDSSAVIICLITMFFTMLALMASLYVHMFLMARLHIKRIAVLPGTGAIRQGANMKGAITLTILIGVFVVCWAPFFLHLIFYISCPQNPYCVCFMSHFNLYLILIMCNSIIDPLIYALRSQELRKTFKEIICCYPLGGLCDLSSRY
Protocol: A membrane binding assay is used to identify competitive inhibitors of fluorescence labeled NDP-alpha-MSH binding to HEK293 cell membrane preparations expressing human melanocortin receptors.
The test compound or unlabeled NDP-alpha-MSH is dispensed at varying concentrations to a 384 well microtiter plate. Fluorescence labeled NDP-alpha-MSH is dispensed at a single concentration, followed by addition of membrane preparations. The plate is incubated for 5 h at room temperature.
The degree of fluorescence polarization is determined with a fluorescence polarization microplate reader.

hMC-4R [2] = biological target: T1, hMC-4R; assay: hMC-4R functional assay (membrane based cAMP fluorescence polarization, agonistic activity); type: biochemical; conditions: cAMP produced compared to stimulation with NDP-alpha-MSH
Protocol: Agonistic activity of human melanocortin receptors is determined in a homogeneous membrane based assay.
The test compound or unlabeled NDP-alpha-MSH is dispensed at varying concentrations to a 384 well microtiter plate. Membrane preparations from HEK293 cells expressing the human melanocortin receptors are added. After a short preincubation period, an appropriate amount of ATP, GTP and the cAMP antibody is added and the plate is further incubated before the fluorescence labeled cAMP conjugate is dispensed. The plate is incubated for 2 h at 4°C before it is read on a fluorescence polarization microplate reader. The amount of cAMP produced as a response to a test compound is compared to the production of cAMP resulting from stimulation with NDP-alpha-MSH.

| IC50 (hMC-4R [1]) [µM] | % activation functional assay (hMC-4R [2]) [%] | SMILES |
| --- | --- | --- |
| ≤ 0.1 | 4 | CCC(COc1cccnc1C1CCN(C(=O)C(Cc2ccc(Cl)cc2Cl)NC(=O)OC(C)C)CC1)N(C)C (stereo not drawn) [Example 2] |
| 0.1 to 1 | 0 | CC[C@H](COc1cccnc1C1CCN(C(=O)[C@@H](Cc2ccc(Cl)cc2Cl)NC(=O)OC2CCCC2)CC1)N(C)C [Example 3] |

| SMILES | IC50 (hMC-4R [1]) [µM] | % activation functional assay (hMC-4R [2]) [%] |
| --- | --- | --- |
| CCOC(=O)N[C@H](Cc1ccc(Cl)cc1Cl)C(=O)N1CCC(c2ncccc2OC[C@@H](CC)N(C)C)CC1 [Example 1] | ≤ 0.1 | -6 |
